According to ChEMBL document CHEMBL4706659, “Design, synthesis and biological evaluation of novel 2,4-diaryl pyrimidine derivatives as selective EGFR inhibitors” (Eur J Med Chem, 2021):

Legend:
[1] = species: Homo sapiens; experiment: Selectivity ratio of IC50 for inhibition of recombinant human GST-tagged EGFR expressed in baculovirus expression system to IC50 for inhibition of recombinant human GST-tagged EGFR T790M/L858R double mutant (668 to 1210 residues) expressed in baculovirus expression system
[2] = test system: NCI-H1975; experiment: Induction of apoptosis in human NCI-H1975 cells harboring EGFR T790M/L858R mutant assessed as early apoptotic cells at 5 nM measured after 72 hrs by Annexin-V-FITC/propidium iodide staining based flow cytometry (reference value: 0.72%); type: functional
[3] = Selectivity ratio of IC50 for HK-2 cells to IC50 for antiproliferative activity against human NCI-H1975 cells
[4] = test system: NCI-H1975; experiment: Antiproliferative activity against human NCI-H1975 cells harboring EGFR T790M/L858R mutant by MTT assay; type: functional, cell-based
[5] = test system: NCI-H1975; experiment: Induction of apoptosis in human NCI-H1975 cells harboring EGFR T790M/L858R mutant assessed as late apoptotic cells at 5 nM measured after 72 hrs by Annexin-V-FITC/propidium iodide staining based flow cytometry (reference value: 0.13%); type: functional
[6] = test system: NCI-H1975; experiment: Induction of mitochondrial membrane potential loss in human NCI-H1975 cells harboring EGFR T790M/L858R mutant assessed as cells with intact mitochondrial membrane potential at 5 nM measured after 24 hrs by JC1 staining based fluorescence microscopic analysis (reference value: 94.51%); type: functional
[7] = test system: NCI-H1975; experiment: Antitumor activity against human NCI-H1975 cells harboring EGFR T790M/L858R mutant xenografted in nude mouse assessed as tumor growth inhibition at 15 mg/kg, po administered once daily for 7 days relative to control; type: functional; conditions: Mus musculus, NCI-H1975, po, 168 h, time 7 day, read-out: TGI
[8] = Tmax in Sprague-Dawley rat at 10 mg/kg, po administered as single dose; type: ADME, organism-based; conditions: in vivo
[9] = test system: NCI-H1975; experiment: Induction of mitochondrial membrane potential loss in human NCI-H1975 cells harboring EGFR T790M/L858R mutant assessed as cell population with mitochondrial membrane potential collapse at 1 nM measured after 24 hrs by JC1 staining based fluorescence microscopic analysis (reference value: 5.49%); type: functional
[10] = test system: NCI-H1975; experiment: Induction of mitochondrial membrane potential loss in human NCI-H1975 cells harboring EGFR T790M/L858R mutant assessed as cells with intact mitochondrial membrane potential at 10 nM measured after 24 hrs by JC1 staining based fluorescence microscopic analysis (reference value: 94.51%); type: functional
[11] = test system: NCI-H292; experiment: Antiproliferative activity against human NCI-H292 cells harboring wild-type EGFR by MTT assay; type: functional, cell-based
[12] = AUC (0 to infinity) in Sprague-Dawley rat at 2 mg/kg, iv administered as single dose; type: ADME, organism-based; parameters: route intravenous, time infinity, dose 2 mg/kg; conditions: in vivo
[13] = test system: NCI-H1975; experiment: Induction of apoptosis in human NCI-H1975 cells harboring EGFR T790M/L858R mutant assessed as viable cells at 10 nM measured after 48 hrs by Annexin-V-FITC/propidium iodide staining based flow cytometry (reference value: 98.63%); type: functional; conditions: read-out: Activity
[14] = test system: NCI-H1975; experiment: Induction of apoptosis in human NCI-H1975 cells harboring EGFR T790M/L858R mutant assessed as early apoptotic cells at 5 nM measured after 48 hrs by Annexin-V-FITC/propidium iodide staining based flow cytometry (reference value: 0.82%); type: functional
[15] = test system: NCI-H1975; experiment: Antitumor activity against human NCI-H1975 cells harboring EGFR T790M/L858R mutant xenografted in nude mouse assessed as tumor volume at 15 mg/kg, po administered once daily for 7 days (reference value: 843 mm3); type: functional; conditions: time 7 day
[16] = AUC (0 to t) in Sprague-Dawley rat at 10 mg/kg, po administered as single dose; type: ADME, organism-based; parameters: dose 10 mg/kg; conditions: in vivo
[17] = MRT in Sprague-Dawley rat at 2 mg/kg, iv administered as single dose; type: ADME, organism-based; conditions: in vivo
[18] = Half life in Sprague-Dawley rat at 10 mg/kg, po administered as single dose; type: ADME, organism-based; conditions: in vivo
[19] = test system: NCI-H1975; experiment: Induction of apoptosis in human NCI-H1975 cells harboring EGFR T790M/L858R mutant assessed as late apoptotic cells at 10 nM measured after 72 hrs by Annexin-V-FITC/propidium iodide staining based flow cytometry (reference value: 0.13%); type: functional
[20] = test system: NCI-H1975; experiment: Induction of apoptosis in human NCI-H1975 cells harboring EGFR T790M/L858R mutant assessed as early apoptotic cells at 10 nM measured after 72 hrs by Annexin-V-FITC/propidium iodide staining based flow cytometry (reference value: 0.72%); type: functional
[21] = Cytotoxicity against HLF cells assessed as reduction in cell viability by MTT assay; type: cell-based; conditions: Homo sapiens
[22] = test system: NCI-H1975; experiment: Induction of apoptosis in human NCI-H1975 cells harboring EGFR T790M/L858R mutant assessed as necrotic cells at 10 nM measured after 72 hrs by Annexin-V-FITC/propidium iodide staining based flow cytometry (reference value: 0.49%); type: functional
[23] = Cmax in Sprague-Dawley rat at 10 mg/kg, po administered as single dose; type: ADME, organism-based; parameters: route oral, dose 10 mg/kg; conditions: in vivo
[24] = test system: NCI-H1975; experiment: Induction of mitochondrial membrane potential loss in human NCI-H1975 cells harboring EGFR T790M/L858R mutant assessed as cell population with mitochondrial membrane potential collapse at 10 nM measured after 24 hrs by JC1 staining based fluorescence microscopic analysis (reference value: 5.49%); type: functional
[25] = test system: NCI-H1975; experiment: Induction of mitochondrial membrane potential loss in human NCI-H1975 cells harboring EGFR T790M/L858R mutant assessed as cell population with mitochondrial membrane potential collapse at 5 nM measured after 24 hrs by JC1 staining based fluorescence microscopic analysis (reference value: 5.49%); type: functional
[26] = test system: NCI-H1975; experiment: Induction of mitochondrial membrane potential loss in human NCI-H1975 cells harboring EGFR T790M/L858R mutant assessed as cells with intact mitochondrial membrane potential at 1 nM measured after 24 hrs by JC1 staining based fluorescence microscopic analysis (reference value: 94.51%); type: functional
[27] = Half life in Sprague-Dawley rat at 2 mg/kg, iv administered as single dose; type: ADME, organism-based; conditions: in vivo
[28] = test system: NCI-H1975; experiment: Induction of apoptosis in human NCI-H1975 cells harboring EGFR T790M/L858R mutant assessed as viable cells at 5 nM measured after 72 hrs by Annexin-V-FITC/propidium iodide staining based flow cytometry (reference value: 98.66%); type: functional; conditions: read-out: Activity
[29] = test system: NCI-H1975; experiment: Induction of apoptosis in human NCI-H1975 cells harboring EGFR T790M/L858R mutant assessed as viable cells at 10 nM measured after 72 hrs by Annexin-V-FITC/propidium iodide staining based flow cytometry (reference value: 98.66%); type: functional; conditions: read-out: Activity
[30] = AUC (0 to infinity) in Sprague-Dawley rat at 10 mg/kg, po administered as single dose; type: ADME, organism-based; parameters: time infinity, route oral, dose 10 mg/kg; conditions: in vivo
[31] = test system: NCI-H1975; experiment: Induction of apoptosis in human NCI-H1975 cells harboring EGFR T790M/L858R mutant assessed as viable cells at 5 nM measured after 48 hrs by Annexin-V-FITC/propidium iodide staining based flow cytometry (reference value: 98.63%); type: functional; conditions: read-out: Activity
[32] = Clearance in Sprague-Dawley rat at 2 mg/kg, iv administered as single dose; type: ADME, organism-based; conditions: in vivo

With `C=CC(=O)Nc1cc(Nc2nccc(-c3cn(C4CC4)c4ccccc34)n2)c(OC)cc1[S+]([O-])CCN(C)C` (configuration not stated) the Ratio IC50 [1] was 15.8, the Activity [2] was 19.59% and the “Ratio IC50” value [3] was 733. The IC50 [4] was 8 nM, the Activity [5] was 17.07% and the Activity [6] was 72.38%. It also gave an inhibition in vivo at 15 mg/kg [7] of 93.3%, a Tmax [8] of 1.67 h and an Activity [9] of 19.29%. For the same compound, the Activity [10] was 59.69%, the IC50 [11] was 718 nM and the AUC(0-inf) [12] was 340 ng·h/mL. The viability at 0.01 µM [13] was 41.1%, the Activity [14] was 21.73% and the Activity [15] was 56 mm3. The AUC(0-t) [16] was 676 ng·h/mL, the MRT [17] was 1.01 h and the half-life [18] was 151 min. It also gave an Activity [19] of 22.53%, an Activity [20] of 44.72% and an IC50 [21] of 6.04 µM. It also gave an Activity [22] of 5.38%, a Cmax [23] of 203 ng/mL and an Activity [24] of 40.31%. The Activity [25] was 26.9%, the Activity [26] was 80.71% and the half-life [27] was 42 min. It also gave a viability at 0.005 µM [28] of 52.5%, a viability at 0.01 µM [29] of 27.4% and an AUC(0-inf) [30] of 722 ng·h/mL. For the same compound, the viability at 0.005 µM [31] was 68.2% and the clearance [32] was 98.1 mL/min/kg.
